Assay results published in patent US9365619B2, “IgG-binding peptide and method for detecting and purifying IgG using same” (Otsuka Chemical Co., Ltd., priority 2011, dated 2016).
Bridge positions count the residues as written; N and C are the ends. Peptide text beside a SMILES is read from it.

Molecular target: human IgG
Assay: Surface plasmon resonance (SPR) analysis of synthetic peptide binding to human IgG
Conditions: for Kd: SPR, synthetic peptide binding to human IgG, read-out: Kd; for affinity compared with the original peptide, in words: compared with GFc-C35-3/15
Procedure: In order to narrow down the amino acid region to be studied, a peptide in which one amino acid was deleted from each end of GFc-C35 (GFc-C35-2/16) and a peptide in which two amino acids were deleted from each end of CFc-C35 (GFc-C35-3/15) were synthesized. Among these peptides, based on the GFc-C35-3/15 synthetic peptide, the effect of the introduction of amino acid mutations on affinity was evaluated. That is, the contribution of each amino acid substitution to affinity was evaluated by synthesizing peptides substituted with frequently or occasionally observed amino acids obtained from the phage libraries and subjecting the resulting synthetic peptides to binding analysis.
Based on the synthetic peptide C35A, peptides substituted with amino acids observed at high frequency in the aforementioned phage libraries were synthesized by introducing amino acid mutations, and in a similar manner to the above, their binding to human IgG was analyzed by surface plasmon resonance (SPR) analysis to evaluate the contribution of each amino acid substitution to affinity.

Compound	Kd [µM]	affinity compared with the original peptide, in words
CC(C)C[C@@H]1NC(=O)[C@H](CCC(=O)O)NC(=O)CNC(=O)[C@H](CCCNC(=N)N)NC(=O)[C@H](Cc2c[nH]cn2)NC(=O)[C@H](Cc2ccc(O)cc2)NC(=O)[C@H](C)NC(=O)[C@@H](NC(=O)[C@H](CC(=O)O)NC(=O)[C@H](CC(=O)O)NC(=O)CN)CSSC[C@@H](C(=O)N[C@H](C(=O)N[C@@H](Cc2ccccc2)C(=O)N[C@@H](Cc2c[nH]cn2)C(N)=O)[C@@H](C)O)NC(=O)[C@H](Cc2c[nH]c3ccccc23)NC(=O)[C@H](C(C)C)NC1=O [C35A (P2D), GDDCAYHRGELVWCTFH] (H-GDDCAYHRGELVWCTFH-NH2; disulfide 4-14)	0.0133	
CC(C)C[C@@H]1NC(=O)[C@H](CCC(=O)O)NC(=O)CNC(=O)[C@H](CCCNC(=N)N)NC(=O)[C@H](Cc2c[nH]cn2)NC(=O)[C@H](Cc2ccc(O)cc2)NC(=O)[C@H](C)NC(=O)[C@@H](NC(=O)[C@H](CC(=O)O)NC(=O)[C@@H]2CCCN2C(=O)CN)CSSC[C@@H](C(=O)N[C@H](C(=O)N[C@@H](Cc2ccccc2)C(=O)N[C@@H](Cc2c[nH]cn2)C(N)=O)[C@@H](C)O)NC(=O)[C@H](Cc2c[nH]c3ccccc23)NC(=O)[C@H](C(C)C)NC1=O [Peptide C35A, GPDCAYHRGELVWCTFH] (H-GPDCAYHRGELVWCTFH-NH2; disulfide 4-14)	0.009	
CC(C)C[C@@H]1NC(=O)[C@H](CC(N)=O)NC(=O)CNC(=O)[C@H](CC(C)C)NC(=O)[C@H]([C@@H](C)O)NC(=O)[C@H](Cc2ccc(O)cc2)NC(=O)[C@H]([C@@H](C)O)NC(=O)[C@@H](NC(=O)[C@@H](N)CC(=O)O)CSSC[C@@H](C(=O)N[C@H](C(N)=O)[C@@H](C)O)NC(=O)[C@H](Cc2c[nH]c3ccccc23)NC(=O)[C@H](C(C)C)NC1=O [GFc-C35-3/15 (N8L), DCTYTLGNLVWCT] (H-DCTYTLGNLVWCT-NH2; disulfide 2-12)	260	greatly degreased affinity
CC(C)C[C@@H]1NC(=O)[C@H](CC(N)=O)NC(=O)CNC(=O)[C@H](CC(N)=O)NC(=O)[C@H]([C@@H](C)O)NC(=O)[C@H](Cc2ccc(O)cc2)NC(=O)[C@H]([C@@H](C)O)NC(=O)[C@@H](NC(=O)[C@H](CC(=O)O)NC(=O)[C@@H]2CCCN2C(=O)CN)CSSC[C@@H](C(=O)N[C@H](C(=O)N[C@@H](Cc2ccccc2)C(=O)N[C@@H](Cc2c[nH]cn2)C(N)=O)[C@@H](C)O)NC(=O)[C@H](Cc2c[nH]c3ccccc23)NC(=O)[C@H](C(C)C)NC1=O [GFc-C35, GPDCTYTNGNLVWCTFH] (H-GPDCTYTNGNLVWCTFH-NH2; disulfide 4-14)	14	

Next, values leading:

Kd [µM]	affinity compared with the original peptide, in words	Compound
120		CC(C)C[C@@H]1NC(=O)[C@H](CC(N)=O)NC(=O)CNC(=O)[C@H](CC(N)=O)NC(=O)[C@H]([C@@H](C)O)NC(=O)[C@H](Cc2ccc(O)cc2)NC(=O)[C@H](CO)NC(=O)[C@@H](NC(=O)[C@@H](N)CC(=O)O)CSSC[C@@H](C(=O)N[C@H](C(N)=O)[C@@H](C)O)NC(=O)[C@H](Cc2c[nH]c3ccccc23)NC(=O)[C@H](C(C)C)NC1=O [GFc-C35-3/15 (T5S), DCSYTNGNLVWCT] (H-DCSYTNGNLVWCT-NH2; disulfide 2-12)
2100	greatly reduced affinity	CC(C)C[C@@H]1NC(=O)[C@H](CC(N)=O)NC(=O)CNC(=O)[C@H](CC(N)=O)NC(=O)[C@H]([C@@H](C)O)NC(=O)[C@H](Cc2ccccc2)NC(=O)[C@H]([C@@H](C)O)NC(=O)[C@@H](NC(=O)[C@@H](N)CC(=O)O)CSSC[C@@H](C(=O)N[C@H](C(N)=O)[C@@H](C)O)NC(=O)[C@H](Cc2c[nH]c3ccccc23)NC(=O)[C@H](C(C)C)NC1=O [GFc-C35-3/15 (Y6F), DCTFTNGNLVWCT] (H-DCTFTNGNLVWCT-NH2; disulfide 2-12)
130		CC(C)C[C@@H]1NC(=O)[C@H](CC(N)=O)NC(=O)CNC(=O)[C@H](CC(N)=O)NC(=O)[C@H]([C@@H](C)O)NC(=O)[C@H](Cc2ccc(O)cc2)NC(=O)[C@H]([C@@H](C)O)NC(=O)[C@@H](NC(=O)[C@@H](N)CC(=O)O)CSSC[C@@H](C(=O)N[C@H](C(N)=O)[C@@H](C)O)NC(=O)[C@H](Cc2c[nH]c3ccccc23)NC(=O)[C@H](C(C)C)NC1=O [GFc-C35-3/15, DCTYTNGNLVWCT] (H-DCTYTNGNLVWCT-NH2; disulfide 2-12)
